Key:
[1] = pH of medium after addition of lactic acid (pH-uncorrected group); format: physicochemical
[2] = tested on: human pluripotent stem cells; assay: Optical microscope observation of cells on the 5th day of culture in waste-added medium; format: cell-based
Method: (§1) Onto a 24-well plate (Corning cellBIND Surface: from Corning Incorporated), seeded were 1×10^3 human pluripotent stem cells, to which a medium for pluripotent stem cell (StemFit: from Ajinomoto Co. Inc.) was added, and then cultured. To the medium before 24 hours from the start of culture, a culture substrate (iMatrix-511; from Nippi, Inc.) was added so as to adjust the concentration to 0.5 μg/ml, and also ROCK inhibitor (Y-27632: from FUJIFILM Wako Pure Chemical Corporation) was added so as to adjust the concentration to 10 μM.
The individual cells on the 5th day of culture were observed under an optical microscope. FIG. 6 presents optical microphotographs of the cells cultured in the lactic acid-added medium.
as §1, with “μM. […]” for “μM.”

[3] = tested on: human pluripotent stem cells; assay: Cell density of human pluripotent stem cells after 5 days culture in waste-added medium (cell counter); format: cell-based; conditions: ammonium chloride added
Method: as §1
After the elapse of 5 days, the number of cells in each well was measured by using TC20 full-automatic cell counter (from Bio-Rad Laboratories, Inc.), to calculate cell density. Results are illustrated in FIG. 5.
Onto a 24-well plate (Corning cellBIND Surface: from Corning Incorporated), seeded were 1×10^3 human pluripotent stem cells, to which a medium for pluripotent stem cell (StemFit: from Ajinomoto Co. Inc.) was added, and then cultured. […]
After the elapse of 5 days, the number of cells in each well was measured by using TC20 full-automatic cell counter (from Bio-Rad Laboratories, Inc.), to calculate cell density. […]

[4] = tested on: human pluripotent stem cells; assay: Real-time PCR of undifferentiation/differentiation marker gene expression (Oct4, Nanog, T, Pax6, Fox2) on the 6th day of culture; format: cell-based; conditions: ammonia 2.5 mM
Method: mRNA was then extracted from each cell on the 6th day of culture, using RNeasy Mini Kit (from QIAGEN N.V.), and then purified. Next, cDNA was synthesized from the thus purified mRNA, by using QuantiTect Reverse Transcription Kit (from QIAGEN N.V.). By using each cDNA as a template, and by using Thermal Cycler Dice Real Time System I (from Takara Bio Inc.), expression levels of Oct4, Nanog, T, Pax6 and Fox2 genes were measured by real-time PCR.
Proportion of expression levels of the individual genes at the individual concentration levels of ammonia were calculated, on the basis of the expression level at an ammonia concentration of 0 mM. FIG. 10 is a chart summarizing relation between the ammonia concentration and the gene expression levels. […] This confirms that keeping of the ammonia concentration at lower than 2.5 mM is effective to keep the cell in the undifferentiated state. It was also confirmed that the ammonia-induced promotion of cell differentiation may be suppressed more reliably, by keeping the ammonia concentration at 1 mM or below.

SMILES: CC(O)C(=O)O (centres unmarked) [lactic acid]
- pH of the medium ([1]; lactic acid concentration 5.0 mM): 6.9
- pH of the medium ([1]; lactic acid concentration 7.5 mM): 6.8
- pH of the medium ([1]; lactic acid concentration 10 mM): 6.7
- pH of the medium ([1]; lactic acid concentration 15 mM): 6.5

SMILES: N [ammonia]
- ammonia concentration at which morphological changes of the cell were observed [2]: ≥ 2.5 mM
- ammonia concentration at which cell density sharply decreases [3]: ≥ 10.0 mM
- expression level of Pax6 gene (ectoderm differentiation marker) relative to level at 0 mM [4]: nearly ten times
- expression level of T gene (mesoderm differentiation marker) relative to level at 0 mM [4]: nearly ten times

Source: US20210171904A1, “CELL CULTURE METHOD AND CELL CULTURE APPARATUS” (NIKKISO CO., LTD., priority 2018, published 2021)
